Test results from paper PMC11638965, “Leveraging Dual-Ligase Recruitment to Enhance Protein Degradation via a Heterotrivalent Proteolysis Targeting Chimera” (Journal of the American Chemical Society, 2024).
“And” between values parts separate entries of the source, which are not always exact repeats. Equal entries are not always repeated.

Experiments:
[1] = target: CRBN (Homo sapiens, UniProt Q96SW2); experiment: Western blot dose-response degradation in HEK293 cells; type: cell-based; set-up: Western blot data for BET, CRBN and VHL protein levels; endogenous in cells; host or cells: HEK293 (ATCC); conditions: for DC50: HEK293 cells, 6 h, Western blot, mean ± S.E.M. of three experiments, values marked b mean ± S.D. of two
Chain of CRBN (Q96SW2 whole entry): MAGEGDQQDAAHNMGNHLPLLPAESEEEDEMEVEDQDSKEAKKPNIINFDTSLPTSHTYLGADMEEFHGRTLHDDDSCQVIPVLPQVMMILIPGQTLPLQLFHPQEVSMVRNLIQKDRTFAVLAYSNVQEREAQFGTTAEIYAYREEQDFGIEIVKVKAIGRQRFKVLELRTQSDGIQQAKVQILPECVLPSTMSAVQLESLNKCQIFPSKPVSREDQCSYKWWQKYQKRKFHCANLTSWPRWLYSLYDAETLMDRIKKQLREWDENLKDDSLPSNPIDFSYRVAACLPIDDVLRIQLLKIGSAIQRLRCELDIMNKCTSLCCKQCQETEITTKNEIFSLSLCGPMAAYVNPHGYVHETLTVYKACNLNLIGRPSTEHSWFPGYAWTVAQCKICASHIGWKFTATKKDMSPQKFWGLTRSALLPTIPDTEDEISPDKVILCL
Method: (§1) HEK293 cells were obtained from ATCC. HEK293 was cultured in DMEM supplemented with 10% (v/v) fetal bovine serum (FBS), 1% […] and 1% (v/v) penicillin/streptomycin (pen/strep) at 37 °C, 5% CO2, and 95% humidity.
(§2) HEK293 cells were plated at a density of 5 × 10^5 cells per well of a six well plate a day prior to initiation of the experiment. Compounds were dissolved to a 10 mM concentrated stock solution in DMSO from which the compounds were further diluted to a working concentration range of 1 μM to 100 pM in DMEM and was subsequently added to cells at the initiation of the experiment. An additional vehicle control was added to cells alongside compound treatments. Cells were left to incubate with compound for 6 h at 37 °C, 5% CO2, and 95% humidity. Cells were then subsequently washed twice with PBS before being harvested in RIPA buffer supplemented with protease inhibitor cocktail and Benzonase Nuclease before being store at −20 °C.
(§3) Protein concentration was determined using the BCA assay. Samples were then prepared in LDS buffer containing 5% 1 M DTT and subsequently loaded onto NuPAGE 4–12% Bis-Tris Midi gels, followed by the transfer of the proteins onto nitrocellulose membranes. The membranes were blocked for 1 h prior to incubation with the primary antibodies using 5% Milk TBST. Membranes were incubated at 4 °C in either BRD4(Ab128874), BRD3(Ab50818), BRD2(Ab139690), VHL(CST#68547) and CRBN(CST#71810) primary antibody overnight. Following overnight incubation, the membranes were incubated with complementary IRDye 800CW secondary antibody and a hFAB Rhodamine Anti-Tubulin Primary Antibody (loading control) for 1 h and then imaged with a Bio-Rad imager. All Western blots were analyzed for band intensities using Image Lab (Bio-Rad). The data extracted from these blots were then plotted and analyzed using Prism (v. 10.2.2, GraphPad). Linear regression curve fitting was used to calculate pDC50 values. The standard deviation of the pDC50 was calculated for all compounds that had two independent repeats and the standard error of the mean calculated for all compounds that had three independent repeats. All Western blotting figures were developed in Adobe illustrator.

[2] = target: T1, BRD2 (Homo sapiens, UniProt P25440); experiment: as above; type: cell-based; conditions: 6 h, mean ± S.E.M. of three experiments, values marked b mean ± S.D. of two
T1 construct: HiBiT, is appended to the N-terminus of endogenous BRD2, BRD3, and BRD4; endogenous in cells
T1 sequence (P25440 whole entry): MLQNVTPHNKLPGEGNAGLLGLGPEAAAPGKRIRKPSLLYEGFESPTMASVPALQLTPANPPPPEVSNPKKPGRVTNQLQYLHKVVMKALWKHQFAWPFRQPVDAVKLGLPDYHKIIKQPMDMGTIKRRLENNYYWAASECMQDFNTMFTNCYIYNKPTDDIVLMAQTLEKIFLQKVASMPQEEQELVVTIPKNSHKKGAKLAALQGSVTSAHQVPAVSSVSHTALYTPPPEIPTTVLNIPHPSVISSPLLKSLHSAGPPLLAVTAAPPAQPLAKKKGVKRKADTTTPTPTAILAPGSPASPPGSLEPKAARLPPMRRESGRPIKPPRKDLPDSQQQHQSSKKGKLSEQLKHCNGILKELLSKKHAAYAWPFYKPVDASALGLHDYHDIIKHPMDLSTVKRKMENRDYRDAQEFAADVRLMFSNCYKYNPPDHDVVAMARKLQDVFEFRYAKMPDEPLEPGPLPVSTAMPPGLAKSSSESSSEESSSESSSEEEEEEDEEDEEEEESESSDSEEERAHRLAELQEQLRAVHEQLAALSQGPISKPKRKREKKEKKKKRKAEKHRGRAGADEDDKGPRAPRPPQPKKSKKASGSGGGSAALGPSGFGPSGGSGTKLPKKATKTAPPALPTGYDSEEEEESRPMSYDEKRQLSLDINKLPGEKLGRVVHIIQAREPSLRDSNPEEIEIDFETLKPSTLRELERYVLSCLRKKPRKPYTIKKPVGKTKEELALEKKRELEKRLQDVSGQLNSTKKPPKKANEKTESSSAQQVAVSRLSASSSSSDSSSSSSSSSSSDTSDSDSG
Method: as §1, §2, §3

[3] = target: T2, BRD4^Long (Homo sapiens, UniProt O60885); experiment: as above; type: cell-based; conditions: for DC50: HEK293 cells, 6 h, Western blot, mean ± S.E.M. of three experiments, values marked b mean ± S.D. of two
T2 construct: Western blot data for BET, CRBN and VHL protein levels; endogenous in cells; host or cells: HEK293 (ATCC)
Method: as §1, §2, §3

[4] = target: T3, BRD4^Short (Homo sapiens, UniProt O60885); experiment: as above; type: cell-based; conditions: 6 h, mean ± S.E.M. of three experiments, values marked b mean ± S.D. of two
T3 construct: Western blot data for BET, CRBN and VHL protein levels; endogenous in cells; host or cells: HEK293 (ATCC)
Method: as §1, §2, §3

[5] = target: T4, BRD3 (Homo sapiens, UniProt Q15059); experiment: as above; type: cell-based; conditions: 6 h, mean ± S.E.M. of three experiments, values marked b mean ± S.D. of two
T4 construct: HiBiT, is appended to the N-terminus of endogenous BRD2, BRD3, and BRD4; endogenous in cells
T4 sequence (Q15059 whole entry): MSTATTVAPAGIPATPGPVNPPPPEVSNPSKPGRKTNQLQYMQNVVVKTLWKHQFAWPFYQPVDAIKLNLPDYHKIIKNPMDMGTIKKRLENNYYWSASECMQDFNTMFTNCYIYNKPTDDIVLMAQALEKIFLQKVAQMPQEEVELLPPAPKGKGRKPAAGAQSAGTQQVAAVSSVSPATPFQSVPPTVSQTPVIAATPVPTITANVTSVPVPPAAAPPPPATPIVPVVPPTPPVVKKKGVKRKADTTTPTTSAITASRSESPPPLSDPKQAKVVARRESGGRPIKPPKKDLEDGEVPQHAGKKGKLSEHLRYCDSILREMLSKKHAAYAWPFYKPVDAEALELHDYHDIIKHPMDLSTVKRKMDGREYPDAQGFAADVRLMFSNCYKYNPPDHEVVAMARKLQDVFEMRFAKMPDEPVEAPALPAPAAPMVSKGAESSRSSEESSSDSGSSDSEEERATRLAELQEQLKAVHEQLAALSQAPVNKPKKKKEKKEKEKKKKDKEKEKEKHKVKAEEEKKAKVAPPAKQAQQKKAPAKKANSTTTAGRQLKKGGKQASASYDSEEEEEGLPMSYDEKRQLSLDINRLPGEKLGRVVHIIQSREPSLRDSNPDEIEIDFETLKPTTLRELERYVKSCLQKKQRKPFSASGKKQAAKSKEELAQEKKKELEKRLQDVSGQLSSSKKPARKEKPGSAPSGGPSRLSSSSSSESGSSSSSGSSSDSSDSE
Method: as §1, §2, §3

[6] = target: T4, BRD3; experiment: Live cell kinetic HiBiT degradation assay, HiBiT-BRD3 HEK293 cells; type: cell-based; conditions: for DC50: live cell kinetic degradation, read-out: Dmax 50 BRD3
Summary of the method: (§4)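 HEK293 cells with CRISPR-inserted N-terminal HiBiT on endogenous BRD2 or BRD3, stably expressing LgBiT, equilibrated 3 h with Endurazine at 37 °C, then treated with threefold PROTAC dilution series. Luminescence read every 7 min for 24 h, normalized to pre-read and DMSO; Dmax as lowest signal, rate constant by one-phase exponential decay, Dmax50 from Dmax-concentration fit.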

[7] = tested on: KBM7 cells; experiment: Cell viability assay (CellTiter-Glo); type: cell-based, human; conditions: Homo sapiens, KBM-7; WT KBM7, 5.12 pM to 10 uM, n = 3 (Table S4)
[8] = tested on: K562 cells; experiment: Cell viability assay (CellTiter-Glo); type: cell-based, human; conditions: Homo sapiens; WT K562, 5.12 pM to 10 uM, n = 3 (Table S4)
[9] = target: T1, BRD2; experiment: Live cell kinetic HiBiT degradation assay, HiBiT-BRD2 HEK293 cells; type: cell-based; conditions: for DC50: HiBiT-BRD2 CRISPR knock-in HEK293 cells, live cell kinetic degradation, 24 h, read-out: Dmax 50 BRD2; for λmax BRD2 (degradation rate): HiBiT-BRD2 knock-in HEK293 cells
Summary of the method: as §4

[10] = HiBiT-BRD3 CRISPR knock-in HEK293 cells, 24 h
[11] = HiBiT-BRD3 knock-in HEK293 cells

Row | fold increase in CRBN degradation vs nonmethylated matched pair ([1]; 27 vs 26, 24 vs 23, DC50, HEK293 Western blot) [fold] | DC50 [1] [nM] | DC50 [2] [nM] | DC50 [3] [nM] | DC50 [4] [nM] | DC50 [5] [nM] | DC50 [6, 10] [nM] | λmax BRD3 (degradation rate) [6, 11] | DC50 [6, 11] [nM] | EC50 [8] [nM] | DC50 [9] [nM] | λmax BRD2 (degradation rate) [9] [h⁻¹] | fold decrease in CRBN degradation vs 26 ([1]; DC50, HEK293 Western blot) [fold] | fold decrease in BRD4^Long degradation vs 26 ([3]; DC50, HEK293 Western blot) [fold] | Compound | EC50 [7] [nM]
1 | ~2.6 | 75 ± 14 | 15 ± 2.1 | 2.3 ± 0.4 | 2.1 ± 0.3 | 1.6 ± 0.3 | < 0.43 | 3.31 h⁻¹ | 0.085 | 62.1 | 2 | 2.37 |  |  | Cc1ncsc1-c1ccc([C@H](C)NC(=O)[C@@H]2C[C@@H](O)CN2C(=O)[C@@H](NC(=O)COCC(C)(COCCOCCOCCNc2cc3c(cc2F)C(=O)N(C2CCC(=O)NC2=O)C3=O)COCCOCCOCCOC(=O)C[C@@H]2N=C(c3ccc(Cl)cc3)c3c(sc(C)c3C)-n3c(C)nnc32)C(C)(C)C)cc1 (mixture of isomers) [AB3067 (27), (17S)-11-((2-(2-(2-((2-(2,6-dioxopiperidin-3-yl)-6-fluoro-1,3-dioxoisoindolin-5-yl)amino)ethoxy)ethoxy)ethoxy)methyl)-17-((2S,4R)-4-hydroxy-2-(((S)-1-(4-(4-methylthiazol-5-yl)phenyl)ethyl)carbamoyl)pyrrolidine-1-carbonyl)-11,18,18-trimethyl-15-oxo-3,6,9,13-tetraoxa-16-azanonadecyl 2-((S)-4-(4-chlorophenyl)-2,3,9-trimethyl-6H-thieno[3,2-f][1,2,4]triazolo[4,3-a][1,4]diazepin-6-yl)acetate] | 6.9
2 |  | 900 ± 720 | 19 ± 7.2 | 4 ± 2.1 | 4.4 ± 2.4 | 6.4 ± 0.8 | 3 | 2.60 h⁻¹ and 2.6 h⁻¹ |  | 242 | 31 | 2.63 | 4.5 | 5.3 | Cc1ncsc1-c1ccc(CNC(=O)[C@@H]2C[C@@H](O)CN2C(=O)[C@@H](NC(=O)COCC(C)(COCCOCCNc2cc3c(cc2F)C(=O)N(C2CCC(=O)NC2=O)C3=O)COCCOCCOC(=O)C[C@@H]2N=C(c3ccc(Cl)cc3)c3c(sc(C)c3C)-n3c(C)nnc32)C(C)(C)C)cc1 (mixture of isomers) [AB3125 (30), (14S)-8-((2-(2-((2-(2,6-dioxopiperidin-3-yl)-6-fluoro-1,3-dioxoisoindolin-5-yl)amino)ethoxy)ethoxy)methyl)-14-((2S,4R)-4-hydroxy-2-((4-(4-methylthiazol-5-yl)benzyl)carbamoyl)pyrrolidine-1-carbonyl)-8,15,15-trimethyl-12-oxo-3,6,10-trioxa-13-azahexadecyl 2-((S)-4-(4-chlorophenyl)-2,3,9-trimethyl-6H-thieno[3,2-f][1,2,4]triazolo[4,3-a][1,4]diazepin-6-yl)acetate] | 34.1
3 |  | 150 ± 190 | 33 ± 34 | 5 ± 5.3 | 5.3 ± 5.5 | 6.6 ± 0.3 | 1.9 | 2.62 h⁻¹ |  | 80.5 | 18 | 2.35 |  |  | Cc1ncsc1-c1ccc(CNC(=O)[C@@H]2C[C@@H](O)CN2C(=O)[C@@H](NC(=O)COCC(C)(COCCOCCNc2cc3c(cc2F)C(=O)N(C2CCC(=O)NC2=O)C3=O)COCCOCCOCCOC(=O)C[C@@H]2N=C(c3ccc(Cl)cc3)c3c(sc(C)c3C)-n3c(C)nnc32)C(C)(C)C)cc1 (mixture of isomers) [AB3126 (29), (17S)-11-((2-(2-((2-(2,6-dioxopiperidin-3-yl)-6-fluoro-1,3-dioxoisoindolin-5-yl)amino)ethoxy)ethoxy)methyl)-17-((2S,4R)-4-hydroxy-2-((4-(4-methylthiazol-5-yl)benzyl)carbamoyl)pyrrolidine-1-carbonyl)-11,18,18-trimethyl-15-oxo-3,6,9,13-tetraoxa-16-azanonadecyl 2-((S)-4-(4-chlorophenyl)-2,3,9-trimethyl-6H-thieno[3,2-f][1,2,4]triazolo[4,3-a][1,4]diazepin-6-yl)acetate] | 7.3
